The values below are quoted from earlier work in US20070155747A1, “INHIBITORS OF FATTY ACID AMIDE HYDROLASE” (KADMUS PHARMACEUTICALS, INC., priority 2005, published 2007).

For the data set, the system named is FAAH. Particulars: literature (Kathuria et al. 2003; Mor et al. 2004; WO 2004/033422).

For the compound `NC(=O)c1cccc(-c2cccc(OC(=O)NC3CCCCC3)c2)c1` [KDS-4103], the “inhibition of FAAH activity” value was “potent and selective inhibitors of FAAH activity”.
